Columns and labels:
ErbB2 (D769Y) = biological target: T1, ErbB2 (D769Y) (Homo sapiens, UniProt P04626, D769Y); test: ErbB2 mutant inhibition assay (33P-ATP radiometric kinase assay, Reaction Biology); format: biochemical; conditions: ATP 10 μM, 20 min preincubation, 2 h reaction; read-out: Compound IC50 ErbB2 (D769Y)
T1 construct: purchased Reaction Biology Corporation
Experimental: (§1) The reagents and materials used in the assay, as well as the testing procedure, were provided and carried out by Reaction Biology Corporation. The specific steps were as follows: • 1. […] Conditions for the enzyme reaction assay: The test compounds were incubated for 20 minutes, ATP concentration was set at 10 μM, and the total duration of the enzyme reaction was 2 hours. • 3. Experimental steps for the enzyme reaction
(§2) The enzyme reaction buffer was 20 mM HEPES at a pH of 7.5, 10 mM MgCl2, 2 mM MnCl2, 1 mM EGTA, 0.01% Brij35, 0.02 mg/mL BSA, 0.1 mM Na3VO4, 2 mM DTT, and 1% DMSO.
(§3) Kinase activity %=(Remaining kinase activity of test compound samples/Kinase activity of solvent control samples (DMSO))*100%
(§4) The IC50 of the compound was calculated by fitting the kinase activity % at different compound concentrations.

ErbB2 (V777L) = biological target: T2, ErbB2 (V777L) (Homo sapiens, UniProt P04626, V777L); test: as above; format: biochemical; conditions: ATP 10 μM, 20 min preincubation, 2 h reaction; read-out: Compound IC50 ErbB2 (V777L)
T2 construct: purchased Reaction Biology Corporation
T2 sequence (P04626 23-1255 V777L): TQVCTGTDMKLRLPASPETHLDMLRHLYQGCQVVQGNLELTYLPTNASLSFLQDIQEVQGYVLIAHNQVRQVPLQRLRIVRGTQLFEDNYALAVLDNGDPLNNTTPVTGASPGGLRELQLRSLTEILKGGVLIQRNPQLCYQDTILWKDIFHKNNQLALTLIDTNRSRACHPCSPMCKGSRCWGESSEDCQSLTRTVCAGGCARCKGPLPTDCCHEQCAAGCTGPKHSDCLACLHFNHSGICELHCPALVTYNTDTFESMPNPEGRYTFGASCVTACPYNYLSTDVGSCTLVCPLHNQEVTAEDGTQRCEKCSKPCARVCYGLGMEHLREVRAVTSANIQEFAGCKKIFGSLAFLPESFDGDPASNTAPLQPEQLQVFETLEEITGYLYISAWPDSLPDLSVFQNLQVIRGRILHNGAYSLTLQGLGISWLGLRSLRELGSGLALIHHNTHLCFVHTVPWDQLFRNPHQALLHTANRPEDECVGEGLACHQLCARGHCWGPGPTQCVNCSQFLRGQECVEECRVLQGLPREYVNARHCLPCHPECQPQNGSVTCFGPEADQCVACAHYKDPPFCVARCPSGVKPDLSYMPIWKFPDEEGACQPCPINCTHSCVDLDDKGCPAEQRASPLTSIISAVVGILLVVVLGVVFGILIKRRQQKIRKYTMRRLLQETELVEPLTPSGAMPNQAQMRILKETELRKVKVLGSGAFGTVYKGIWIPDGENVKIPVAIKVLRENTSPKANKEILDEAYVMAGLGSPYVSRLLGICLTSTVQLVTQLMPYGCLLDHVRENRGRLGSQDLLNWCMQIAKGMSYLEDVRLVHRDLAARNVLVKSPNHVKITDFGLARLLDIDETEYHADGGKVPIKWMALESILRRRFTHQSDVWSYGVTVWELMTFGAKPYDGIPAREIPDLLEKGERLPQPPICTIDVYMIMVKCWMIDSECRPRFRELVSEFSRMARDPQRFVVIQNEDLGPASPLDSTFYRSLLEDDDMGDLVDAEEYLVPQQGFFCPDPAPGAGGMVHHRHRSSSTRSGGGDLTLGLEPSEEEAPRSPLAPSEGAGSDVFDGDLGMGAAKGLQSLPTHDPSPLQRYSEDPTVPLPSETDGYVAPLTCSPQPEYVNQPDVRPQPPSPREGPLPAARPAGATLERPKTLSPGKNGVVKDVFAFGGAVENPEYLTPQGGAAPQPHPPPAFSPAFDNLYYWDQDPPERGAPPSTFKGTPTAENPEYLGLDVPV
Experimental: as §1, §2, §3, §4

ErbB2 (D769H) = biological target: T3, ErbB2 (D769H) (Homo sapiens, UniProt P04626, D769H); test: as above; format: biochemical; conditions: ATP 10 μM, 20 min preincubation, 2 h reaction; read-out: Compound IC50 ErbB2 (D769H)
T3 construct: purchased Reaction Biology Corporation
T3 sequence (P04626 23-1255 D769H): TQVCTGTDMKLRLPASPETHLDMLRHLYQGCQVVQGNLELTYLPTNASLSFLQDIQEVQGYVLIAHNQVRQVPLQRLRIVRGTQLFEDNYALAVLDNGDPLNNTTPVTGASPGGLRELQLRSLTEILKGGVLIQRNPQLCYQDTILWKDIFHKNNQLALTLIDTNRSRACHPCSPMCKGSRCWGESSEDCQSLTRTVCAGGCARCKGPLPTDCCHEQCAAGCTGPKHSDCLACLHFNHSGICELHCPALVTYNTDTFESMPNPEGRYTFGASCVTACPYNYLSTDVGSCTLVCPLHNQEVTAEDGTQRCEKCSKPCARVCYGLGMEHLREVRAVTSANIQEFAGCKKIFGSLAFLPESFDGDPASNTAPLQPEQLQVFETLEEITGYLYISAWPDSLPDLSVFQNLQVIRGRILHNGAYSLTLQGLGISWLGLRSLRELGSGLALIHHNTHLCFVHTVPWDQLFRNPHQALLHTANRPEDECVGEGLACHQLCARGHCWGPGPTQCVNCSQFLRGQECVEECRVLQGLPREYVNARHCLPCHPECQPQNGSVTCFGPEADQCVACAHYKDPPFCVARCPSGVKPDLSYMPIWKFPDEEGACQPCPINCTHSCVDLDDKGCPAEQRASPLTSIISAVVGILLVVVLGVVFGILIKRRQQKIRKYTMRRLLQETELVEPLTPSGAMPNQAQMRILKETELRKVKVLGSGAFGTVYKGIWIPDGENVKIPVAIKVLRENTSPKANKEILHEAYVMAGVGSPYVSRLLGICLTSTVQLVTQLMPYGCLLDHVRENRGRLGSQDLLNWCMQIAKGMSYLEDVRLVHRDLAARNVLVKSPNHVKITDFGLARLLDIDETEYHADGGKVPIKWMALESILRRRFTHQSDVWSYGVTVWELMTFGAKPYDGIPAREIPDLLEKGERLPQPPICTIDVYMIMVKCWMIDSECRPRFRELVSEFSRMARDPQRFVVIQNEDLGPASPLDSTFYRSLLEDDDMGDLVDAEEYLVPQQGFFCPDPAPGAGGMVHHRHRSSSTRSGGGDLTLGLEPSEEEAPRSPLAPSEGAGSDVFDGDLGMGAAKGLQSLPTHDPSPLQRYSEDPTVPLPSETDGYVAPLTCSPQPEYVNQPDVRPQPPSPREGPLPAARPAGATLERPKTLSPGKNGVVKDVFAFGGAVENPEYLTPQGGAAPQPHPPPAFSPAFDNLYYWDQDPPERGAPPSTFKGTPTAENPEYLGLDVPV
Experimental: as §1, §2, §3, §4

ErbB2 (R896C) = biological target: T4, ErbB2 (R896C) (Homo sapiens, UniProt P04626, R896C); test: as above; format: biochemical; conditions: ATP 10 μM, 20 min preincubation, 2 h reaction; read-out: Compound IC50 ErbB2 (R896C)
T4 construct: purchased Reaction Biology Corporation
T4 sequence (P04626 23-1255 R896C): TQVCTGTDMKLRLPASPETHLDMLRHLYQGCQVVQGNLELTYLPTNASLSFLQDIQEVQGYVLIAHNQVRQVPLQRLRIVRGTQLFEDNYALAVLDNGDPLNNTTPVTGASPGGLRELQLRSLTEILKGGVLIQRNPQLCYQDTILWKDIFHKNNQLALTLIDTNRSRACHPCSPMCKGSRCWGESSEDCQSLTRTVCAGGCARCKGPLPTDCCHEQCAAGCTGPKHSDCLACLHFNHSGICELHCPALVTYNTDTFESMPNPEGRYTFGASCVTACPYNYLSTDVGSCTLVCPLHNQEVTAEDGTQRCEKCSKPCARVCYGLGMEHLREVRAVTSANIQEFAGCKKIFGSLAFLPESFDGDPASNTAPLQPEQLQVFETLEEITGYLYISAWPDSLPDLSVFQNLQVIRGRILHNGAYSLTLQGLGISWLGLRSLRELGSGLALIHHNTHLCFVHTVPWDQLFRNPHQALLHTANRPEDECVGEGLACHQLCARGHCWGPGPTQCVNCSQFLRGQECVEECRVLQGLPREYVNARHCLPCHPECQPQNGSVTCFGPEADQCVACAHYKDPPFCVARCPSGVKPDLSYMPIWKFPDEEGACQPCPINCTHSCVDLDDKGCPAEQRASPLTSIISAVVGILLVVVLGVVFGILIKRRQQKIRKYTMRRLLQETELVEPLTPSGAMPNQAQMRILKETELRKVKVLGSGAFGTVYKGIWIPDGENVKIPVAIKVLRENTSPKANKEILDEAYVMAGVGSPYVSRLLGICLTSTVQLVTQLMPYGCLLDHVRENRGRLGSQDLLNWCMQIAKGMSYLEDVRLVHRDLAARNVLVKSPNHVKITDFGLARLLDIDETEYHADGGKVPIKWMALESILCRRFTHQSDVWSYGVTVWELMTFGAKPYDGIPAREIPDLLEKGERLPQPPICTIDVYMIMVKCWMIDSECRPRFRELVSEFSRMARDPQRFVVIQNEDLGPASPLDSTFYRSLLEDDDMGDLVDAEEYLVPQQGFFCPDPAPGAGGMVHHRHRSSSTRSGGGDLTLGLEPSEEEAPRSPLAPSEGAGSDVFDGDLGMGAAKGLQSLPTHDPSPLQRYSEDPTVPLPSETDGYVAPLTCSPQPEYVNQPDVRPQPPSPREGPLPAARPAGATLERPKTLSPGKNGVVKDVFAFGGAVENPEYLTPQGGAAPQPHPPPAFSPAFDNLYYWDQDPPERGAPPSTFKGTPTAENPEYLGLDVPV
Experimental: as §1, §2, §3, §4

[1] = tested on: Ba/F3 ErbB2 A775_G776insYVMA mouse xenograft; test: Efficacy testing in NPSG mouse xenograft model; format: in vivo; conditions: 20 mg/kg; for TGI (%): administration for 13 days; for Efficacy (in words): continuous administration for 13 days
Source text: NPSG male mice (Shanghai Jihui Laboratory Animal Care Co., Ltd., Certificate: No. 20170012006783) were subcutaneously inoculated on the right shoulder with Ba/F3 ErbB2 A775_G776insYVMA cells (cultured in vitro, 9×10^7 cells obtained). When the average tumor volume reached 130 mm^3, the mice were randomly divided into six groups based on tumor volume and body weight, with 10 mice in each group, and administration was started immediately. After the initiation of administration, the mice's body weight and tumor volume were measured twice a week, with the administration continued until Day 13 of the experiment. On Day 14 of the experiment, post-administration sample collection was conducted for each group.
Note: Data are presented as mean±standard error; control group is the group without any compound administered.

[2] = tested on: Ba/F3 ErbB2 A775_G776insYVMA; test: ErbB2 mutant cell inhibition test (CTG, 72 hours); format: cell-based; conditions: Mus musculus, BaF3; Ba/F3 ErbB2 A775_G776insYVMA, 72 hours, CTG
Experimental: Cells were cultured, harvested during their logarithmic growth phase, and counted using a platelet counter. Cell viability was verified to be above 90% by trypan blue exclusion assay. After in vitro culture, 2×10^6 cells were obtained. […] A 10× drug solution was prepared, with a maximum concentration of 10 μM for the assay, and serially diluted 3-fold to nine concentrations. 10 μL of the drug solution was added to each well of the 96-well plate inoculated with the cells, and three duplicate wells were set for each drug concentration.

[3] = tested on: NCI-H1781 ErbB2 exon20ins (G766 > VC); test: ErbB2 mutant cell inhibition test (CTG, 72 hours); format: cell-based, Human; conditions: Homo sapiens; NCI-H1781 ErbB2 exon20ins (G766 > VC), 72 hours, CTG
Experimental: Cells were cultured, harvested during their logarithmic growth phase, and counted using a platelet counter. Cell viability was verified to be above 90% by trypan blue exclusion assay. After in vitro culture, 2×10^6 cells were obtained. The cell suspension was aliquoted into a 96-well plate at 1×10^3 cells per well (90 μL/well), and incubated overnight under conditions of 37° C., 5% CO2, and 95% humidity. A 10× drug solution was prepared, with a maximum concentration of 10 μM for the assay, and serially diluted 3-fold to nine concentrations. 10 μL of the drug solution was added to each well of the 96-well plate inoculated with the cells, and three duplicate wells were set for each drug concentration. The 96-well plate, now containing the drug-treated cells, was cultured under conditions of 37° C., 5% CO2, and 95% humidity for an additional 72 hours before CTG analysis was performed.

T1 sequence (P04626 23-1255 D769Y): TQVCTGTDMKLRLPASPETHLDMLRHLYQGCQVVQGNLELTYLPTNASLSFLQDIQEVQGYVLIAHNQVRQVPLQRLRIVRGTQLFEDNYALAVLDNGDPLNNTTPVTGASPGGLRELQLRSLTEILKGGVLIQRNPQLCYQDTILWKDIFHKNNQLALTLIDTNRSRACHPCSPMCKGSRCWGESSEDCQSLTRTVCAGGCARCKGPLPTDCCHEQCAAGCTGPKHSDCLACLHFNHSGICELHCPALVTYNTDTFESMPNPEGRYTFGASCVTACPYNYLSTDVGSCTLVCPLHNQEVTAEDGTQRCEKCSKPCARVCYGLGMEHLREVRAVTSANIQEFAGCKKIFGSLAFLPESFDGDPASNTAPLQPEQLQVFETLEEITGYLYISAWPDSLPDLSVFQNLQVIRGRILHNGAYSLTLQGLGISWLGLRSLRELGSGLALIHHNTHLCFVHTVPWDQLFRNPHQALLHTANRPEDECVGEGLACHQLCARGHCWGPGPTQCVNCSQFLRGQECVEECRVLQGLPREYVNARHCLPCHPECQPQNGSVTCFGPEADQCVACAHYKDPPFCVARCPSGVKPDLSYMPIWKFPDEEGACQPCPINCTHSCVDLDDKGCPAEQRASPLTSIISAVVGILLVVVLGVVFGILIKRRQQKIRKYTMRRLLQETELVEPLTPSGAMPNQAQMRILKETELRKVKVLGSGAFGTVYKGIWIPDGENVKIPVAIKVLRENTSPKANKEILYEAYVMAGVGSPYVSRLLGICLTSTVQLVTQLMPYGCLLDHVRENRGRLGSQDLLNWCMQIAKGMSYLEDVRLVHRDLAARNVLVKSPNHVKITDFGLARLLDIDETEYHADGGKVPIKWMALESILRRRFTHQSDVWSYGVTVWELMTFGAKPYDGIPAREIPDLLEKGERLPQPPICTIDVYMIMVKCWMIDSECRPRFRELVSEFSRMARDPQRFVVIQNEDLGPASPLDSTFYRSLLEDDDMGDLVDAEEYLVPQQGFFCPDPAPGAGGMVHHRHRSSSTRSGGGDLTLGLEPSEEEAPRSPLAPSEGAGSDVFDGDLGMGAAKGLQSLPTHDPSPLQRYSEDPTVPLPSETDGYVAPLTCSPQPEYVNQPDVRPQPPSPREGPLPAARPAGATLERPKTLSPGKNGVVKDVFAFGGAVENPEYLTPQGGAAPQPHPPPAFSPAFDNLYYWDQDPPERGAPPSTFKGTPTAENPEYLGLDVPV

IC50 (ErbB2 (D769Y))	IC50 (ErbB2 (V777L))	IC50 (ErbB2 (D769H))	IC50 (ErbB2 (R896C))	IC50 [2]	IC50 [3]	Compound	Tumor volume ([1]; Day 0, mean ± standard error)	Tumor volume ([1]; Day 4, mean ± standard error)	Tumor volume ([1]; Day 7, mean ± standard error)	Tumor volume ([1]; Day 11, mean ± standard error)	Tumor volume ([1]; Day 13, mean ± standard error)	TGI (%) [1]	Efficacy (in words) [1]
811 pM	2410 pM	1690 pM	4840 pM			Cc1cc(Nc2ncnc3ccc(NC(=O)/C(F)=C/[C@H]4CCCN4C)cc23)ccc1Oc1cc2nncn2cn1							
2060 pM	889 pM	1340 pM	1940 pM			CCOc1cc2ncc(C#N)c(Nc3ccc(Oc4cc5nncn5cn4)c(C)c3)c2cc1NC(=O)/C=C/[C@H]1CCCN1C							
						CCOc1cc2ncc(C#N)c(Nc3ccc(OCc4ccccn4)c(Cl)c3)c2cc1NC(=O)/C=C/CN(C)C [Neratinib, reference compound]	130.9 ± 4.75 mm^3	115.3 ± 9.81 mm^3	182 ± 10.87 mm^3	325.6 ± 9.86 mm^3	532.8 ± 15.26 mm^3	56%	
600 pM	279 pM	< 152 pM	336 pM			Cc1cc(Nc2ncnc3ccc(NC(=O)/C=C/[C@H]4CCCN4C)cc23)ccc1Oc1cnc2ccnn2c1							
< 152 pM	< 152 pM	< 152 pM	< 152 pM			CCOc1cc2ncnc(Nc3ccc(Oc4ccn5ncnc5c4)c(C)c3)c2cc1NC(=O)/C=C/[C@H]1CCCN1C							
< 152 pM	< 152 pM	241 pM	599 pM			COCCOc1cc2ncnc(Nc3ccc(Oc4cc5nncn5cn4)c(C)c3)c2cc1NC(=O)/C=C/[C@H]1CCCN1C							
				106000 pM		CS(=O)(=O)CCNCc1ccc(-c2ccc3ncnc(Nc4ccc(OCc5cccc(F)c5)c(Cl)c4)c3c2)o1 [Lapatinib, reference compound]							moderate efficacy
91700 pM	10500 pM	15600 pM	5240 pM		73200 pM	CCOc1cc2ncc(C#N)c(Nc3ccc(OCc4ccccn4)c(Cl)c3)c2cc1NC(=O)/C=C/[C@H]1CCCN1C [Pyrotinib, reference compound]	130.4 ± 5.4 mm^3	154.6 ± 4.87 mm^3	328.2 ± 13.39 mm^3	405.4 ± 19.38 mm^3	534.8 ± 38.29 mm^3	55%	moderate efficacy
246 pM	186 pM	325 pM	997 pM			Cc1cc(Nc2ncnc3ccc(NC(=O)/C=C/[C@H]4CCCN4)cc23)ccc1Oc1ccn2ncnc2c1							
247 pM	357 pM	422 pM	1130 pM			Cc1cc(Nc2ncnc3ccc(NC(=O)/C=C/[C@H]4CCCN4)cc23)ccc1Oc1cc2nncn2cn1							
244 pM	< 152 pM	< 152 pM	379 pM			Cc1cc(Nc2ncnc3ccc(NC(=O)/C=C/[C@H]4CCCN4C)cc23)ccc1Oc1ccn2ccnc2c1							

Reference: patent US20240197737A1, “APPLICATION OF COMPOUND IN PREPARATION OF INHIBITORY DRUG TARGETING ERBB2 MUTANT” (SHANGHAI PHARMACEUTICALS HOLDING CO., LTD., priority 2021, published 2024)
